Results as given in paper PMC6046546, “Gossypol Inhibits Non-small Cell Lung Cancer Cells Proliferation by Targeting EGFR^L858R/T790M” (Frontiers in Pharmacology, 2018).

How the values were obtained:
EGFR^L858R/T790M = target: T1, EGFR^L858R/T790M (Homo sapiens, UniProt P00533, L858R/T790M); assay: ELISA kinase activity assay, recombinant kinase, poly(Glu,Tyr) […] substrate, […] ATP; type: biochemical
T1 construct: kinase domain

EGFR^WT = EGFR^WT (Homo sapiens, UniProt P00533); assay: ELISA kinase activity assay, poly(Glu,Tyr) […] substrate, […] ATP; type: biochemical
Chain of EGFR^WT (P00533 25-1210): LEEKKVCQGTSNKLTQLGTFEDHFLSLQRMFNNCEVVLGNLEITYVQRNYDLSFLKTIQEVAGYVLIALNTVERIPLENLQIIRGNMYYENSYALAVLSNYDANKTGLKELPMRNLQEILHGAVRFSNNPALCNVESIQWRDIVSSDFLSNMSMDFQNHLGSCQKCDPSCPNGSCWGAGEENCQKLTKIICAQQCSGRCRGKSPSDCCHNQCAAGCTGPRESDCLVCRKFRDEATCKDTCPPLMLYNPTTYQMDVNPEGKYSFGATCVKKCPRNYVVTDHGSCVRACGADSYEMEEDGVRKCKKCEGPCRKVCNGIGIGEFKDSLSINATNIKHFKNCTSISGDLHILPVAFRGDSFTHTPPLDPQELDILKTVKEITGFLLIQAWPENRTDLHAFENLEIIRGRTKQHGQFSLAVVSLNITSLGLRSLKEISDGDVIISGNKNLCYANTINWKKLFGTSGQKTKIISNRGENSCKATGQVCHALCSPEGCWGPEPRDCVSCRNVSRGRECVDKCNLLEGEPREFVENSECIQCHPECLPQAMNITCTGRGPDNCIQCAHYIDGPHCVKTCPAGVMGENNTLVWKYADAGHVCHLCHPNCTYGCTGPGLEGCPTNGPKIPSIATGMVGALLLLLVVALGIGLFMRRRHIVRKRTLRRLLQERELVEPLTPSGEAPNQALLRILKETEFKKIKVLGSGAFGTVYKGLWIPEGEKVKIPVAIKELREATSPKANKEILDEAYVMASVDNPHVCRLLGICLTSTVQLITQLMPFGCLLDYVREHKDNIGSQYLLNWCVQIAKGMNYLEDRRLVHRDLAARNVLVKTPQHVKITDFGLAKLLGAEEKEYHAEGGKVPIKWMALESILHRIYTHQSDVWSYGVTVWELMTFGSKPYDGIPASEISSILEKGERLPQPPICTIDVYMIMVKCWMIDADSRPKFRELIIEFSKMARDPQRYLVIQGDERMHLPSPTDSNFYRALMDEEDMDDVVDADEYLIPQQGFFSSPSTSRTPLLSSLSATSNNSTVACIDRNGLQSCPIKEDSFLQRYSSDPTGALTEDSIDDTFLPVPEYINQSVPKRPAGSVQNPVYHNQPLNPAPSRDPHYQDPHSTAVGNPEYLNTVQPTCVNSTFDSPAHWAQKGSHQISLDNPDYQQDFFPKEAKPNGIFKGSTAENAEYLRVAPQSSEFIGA

T1 sequence (P00533 696-1022 T790M/L858R limits assumed): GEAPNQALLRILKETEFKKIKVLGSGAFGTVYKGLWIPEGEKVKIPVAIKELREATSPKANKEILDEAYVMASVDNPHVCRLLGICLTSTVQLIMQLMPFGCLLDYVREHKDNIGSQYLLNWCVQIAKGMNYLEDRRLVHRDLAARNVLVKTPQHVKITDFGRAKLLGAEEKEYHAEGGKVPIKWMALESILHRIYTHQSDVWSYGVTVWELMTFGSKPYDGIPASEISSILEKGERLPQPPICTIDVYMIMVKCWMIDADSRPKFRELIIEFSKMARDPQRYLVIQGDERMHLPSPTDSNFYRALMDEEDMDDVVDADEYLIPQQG

Compound `Cc1cc2c(C(C)C)c(O)c(O)c(C=O)c2c(O)c1-c1c(C)cc2c(C(C)C)c(O)c(O)c(C=O)c2c1O` [gossypol] has an EC50 (EGFR^L858R/T790M) of 150 ± 30.7 nM and an EC50 (EGFR^WT) of 253 ± 26.9 nM.
